Results taken from patent publication US20240368109A1, “ALLOSTERIC MODULATORS OF NICOTINIC ACETYLCHOLINE RECEPTORS” (MERCK SHARP & DOHME LLC, priority 2021, published 2024).

Target: human α7 nAChR (Homo sapiens (Human), UniProt P36544)
Experiment: Automated patch-clamp electrophysiology functional assay (Assay A)
Format: cell-based
Details: IonFlux HT whole-cell population patch, HEK cells expressing human α7/RIC-3, 40 μM acetylcholine
How it was run: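 Whole-cell population patch clamp on HEK cells stably co-expressing human α7 and RIC-3, held at −60 mV, room temperature. Compounds tested at three ascending concentrations per recording with or without 40 μM acetylcholine; currents normalized to the 40 μM acetylcholine-evoked reference response to give agonist and potentiation EC50.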

human α7 nAChR, sequence (P36544 23-502): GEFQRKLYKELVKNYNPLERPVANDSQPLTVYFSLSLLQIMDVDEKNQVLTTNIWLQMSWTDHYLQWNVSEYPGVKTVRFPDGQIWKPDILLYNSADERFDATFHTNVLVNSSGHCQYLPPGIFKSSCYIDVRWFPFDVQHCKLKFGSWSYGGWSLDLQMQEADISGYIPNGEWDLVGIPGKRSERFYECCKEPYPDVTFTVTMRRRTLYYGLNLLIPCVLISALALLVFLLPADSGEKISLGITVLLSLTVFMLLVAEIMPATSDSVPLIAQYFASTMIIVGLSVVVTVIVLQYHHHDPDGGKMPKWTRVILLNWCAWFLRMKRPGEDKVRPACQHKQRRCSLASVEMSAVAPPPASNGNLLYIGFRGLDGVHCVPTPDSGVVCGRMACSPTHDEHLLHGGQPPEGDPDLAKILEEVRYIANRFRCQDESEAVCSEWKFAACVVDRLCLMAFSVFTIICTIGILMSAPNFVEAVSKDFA

Row | Structure (SMILES) | EC50 (electrophysiology EC50 values) [nM] | EC50 (potency class) [nM]
1 | CCOc1ccc([C@H](COC)NC(=O)C2C3c4ccccc4N(C(C)=O)C23)cc1 (stereo partly drawn) [Example B12, exo-2-acetyl-N-[(1R)-1-(4-ethoxyphenyl)-2-methoxyethyl]-1,1a,2,6b-tetrahydrocyclopropa[b]indole-1-carboxamide] | 1300 | 500 to 5000
2 | CCOc1ccc([C@H](COC)NC(=O)[C@@H]2[C@H]3Oc4ccnc(OC)c4[C@H]32)cc1 [Example B13, exo-N-[(1R)-1-(4-ethoxyphenyl)-2-methoxyethyl]-6-methoxy-1a,6b-dihydro-1H-cyclopropa[4,5]furo[3,2-c]pyridine-1-carboxamide] | 1100 | 500 to 5000
3 | CCOc1ccc([C@H](COC)NC(=O)C2C3Oc4ccc(C#N)cc4C32)cc1 (stereo partly drawn) [Example B14, exo-5-cyano-N-[(1R)-1-(4-ethoxyphenyl)-2-methoxyethyl]-1a,6b-dihydro-1H-cyclopropa[b][1]benzofuran-1-carboxamide] |  | 500 to 5000
4 | CCOc1ccc([C@H](COC)NC(=O)C2C3Oc4cccc(Br)c4C32)cc1 (stereo partly drawn) [Example B19, exo-6-bromo-N-[(1R)-1-(4-ethoxyphenyl)-2-methoxyethyl]-1a,6b-dihydro-1H-cyclopropa[b][1]benzofuran-1-carboxamide] | 72 | ≤ 100
5 | O=C(N[C@H]1COCc2ccc(F)cc21)C1C2Oc3ccc(F)cc3C21 (stereo partly drawn) [Example C1, exo-5-fluoro-N-[(4R)-6-fluoro-3,4-dihydro-1H-2-benzopyran-4-yl]-1a,6b-dihydro-1H-cyclopropa[b][1]benzofuran-1-carboxamide] | 4800 | 500 to 5000
6 | O=C(N[C@@H](CO)C1CCCCC1)C1C2Sc3ccccc3C21 (stereo partly drawn) [Example C2, exo-N-[(1R)-1-cyclohexyl-2-hydroxyethyl]-1a,6b-dihydro-1H-cyclopropa[b][1]benzothiophene-1-carboxamide] | 2300 | 500 to 5000
7 | O=C(N[C@H]1CCOc2cc(F)ccc21)C1C2Oc3ccc(F)cc3C21 (stereo partly drawn) [Example C6, exo-5-fluoro-N-[(4S)-7-fluoro-3,4-dihydro-2H-1-benzopyran-4-yl]-1a,6b-dihydro-1H-cyclopropa[b][1]benzofuran-1-carboxamide] | 860 | 500 to 5000
8 | O=C(N[C@H]1CCOc2cc(F)c(F)cc21)C1C2Oc3ccc(F)cc3C21 (stereo partly drawn) [Example C7, exo-N-[(4S)-6,7-difluoro-3,4-dihydro-2H-1-benzopyran-4-yl]-5-fluoro-1a,6b-dihydro-1H-cyclopropa[b][1]benzofuran-1-carboxamide] | 1100 | 500 to 5000
9 | O=C(NCCc1ccccc1)C1C2Oc3ccc(F)cc3C21 (stereo not drawn) [Example C11, exo-5-fluoro-N-(2-phenylethyl)-1a,6b-dihydro-1H-cyclopropa[b][1]benzofuran-1-carboxamide] | 2200 | 500 to 5000
10 | O=C(NCc1cc(Cl)ccc1F)C1C2Oc3ccc(F)cc3C21 (stereo not drawn) [Example C14, exo-N-[(5-chloro-2-fluorophenyl)methyl]-5-fluoro-1a,6b-dihydro-1H-cyclopropa[b][1]benzofuran-1-carboxamide] | 810 | 500 to 5000
11 | O=C(NCc1ccc(Cl)c(F)c1)C1C2Oc3ccc(F)cc3C21 (stereo not drawn) [Example C15, exo-N-[(4-chloro-3-fluorophenyl)methyl]-5-fluoro-1a,6b-dihydro-1H-cyclopropa[b][1]benzofuran-1-carboxamide] | 5600 | 5000 to 50000
12 | CCC(NC(=O)C1C2Oc3ccc(F)cc3C21)c1ccccn1 (stereo not drawn) [Example C16, 2-{1-[(exo-5-fluoro-1a,6b-dihydro-1H-cyclopropa[b][1]benzofuran-1-carbonyl)amino]propyl}pyridine] |  | 500 to 5000
13 | O=C(NCc1cccs1)C1C2Oc3ccc(F)cc3C21 (stereo not drawn) [Example C17, exo-5-fluoro-N-[(thiophen-2-yl)methyl]-1a,6b-dihydro-1H-cyclopropa[b][1]benzofuran-1-carboxamide] | 970 | 500 to 5000
14 | O=C(NCc1cccc(N2CCCC2)n1)C1C2Oc3ccc(F)cc3C21 (stereo not drawn) [Example C18, 2-{[(exo-5-fluoro-1a,6b-dihydro-1H-cyclopropa[b][1]benzofuran-1-carbonyl)amino]methyl}-6-(pyrrolidin-1-yl)pyridine] | 1400 | 500 to 5000
15 | O=C(NCc1cc(C(F)F)nc(C(F)F)c1)C1C2Oc3ccc(F)cc3C21 (stereo not drawn) [Example C19, exo-N-{[2,6-bis(difluoromethyl)pyridin-4-yl]methyl}-5-fluoro-1a,6b-dihydro-1H-cyclopropa[b][1]benzofuran-1-carboxamide] | 600 | 500 to 5000
16 | O=C(NCc1cccc(I)c1)C1C2Oc3ccc(F)cc3C21 (stereo not drawn) [Example C21, exo-5-fluoro-N-[(3-iodophenyl)methyl]-1a,6b-dihydro-1H-cyclopropa[b][1]benzofuran-1-carboxamide] | 2100 | 500 to 5000
17 | O=C(NCc1ccc(F)cc1F)C1C2Oc3ccc(F)cc3C21 (stereo not drawn) [Example C23, exo-N-[(2,4-difluorophenyl)methyl]-5-fluoro-1a,6b-dihydro-H-cyclopropa[b][1]benzofuran-1-carboxamide] | 2300 | 500 to 5000
18 | Cc1cc(F)cc(CNC(=O)C2C3Oc4ccc(F)cc4C32)c1 (stereo not drawn) [Example C24, exo-5-fluoro-N-[(3-fluoro-5-methylphenyl)methyl]-1a,6b-dihydro-1H-cyclopropa[b][1]benzofuran-1-carboxamide] | 950 | 500 to 5000
19 | O=C(NCc1ccc(-n2cccc2)cc1)C1C2Oc3ccc(F)cc3C21 (stereo not drawn) [Example C25, exo-5-fluoro-N-{[4-(1H-pyrrol-1-yl)phenyl]methyl}-1a,6b-dihydro-1H-cyclopropa[b][1]benzofuran-1-carboxamide] | 850 | 500 to 5000
20 | O=C(NCc1ccc(O)cc1)C1C2Oc3ccc(F)cc3C21 (stereo not drawn) [Example C26, exo-5-fluoro-N-[(4-hydroxyphenyl)methyl]-1a,6b-dihydro-1H-cyclopropa[b][1]benzofuran-1-carboxamide] | 680 | 500 to 5000
21 | O=C(NCc1ccc2ncccc2c1)C1C2Oc3ccc(F)cc3C21 (stereo not drawn) [Example C27, 6-{[(exo-5-fluoro-1a,6b-dihydro-1H-cyclopropa[b][1]benzofuran-1-carbonyl)amino]methyl}quinoline] | 2000 | 500 to 5000

Other lines, results leading:

Row | EC50 (electrophysiology EC50 values) [nM] | EC50 (potency class) [nM] | Structure (SMILES)
22 | 480 | 100 to 500 | CCOc1ccc([C@H](COC)NC(=O)C2C3Oc4cc(Br)ccc4C32)cc1 (stereo partly drawn) [Example B15, exo-4-bromo-N-[(1R)-1-(4-ethoxyphenyl)-2-methoxyethyl]-1a,6b-dihydro-1H-cyclopropa[b][1]benzofuran-1-carboxamide]
23 | 4100 |  | CCOc1ccc([C@H](COC)NC(=O)C2C3Oc4ccc(C#N)cc4C32)cc1 (stereo partly drawn) [Example B16, exo-5-cyano-N-[(1R)-1-(4-ethoxyphenyl)-2-methoxyethyl]-1a,6b-dihydro-1H-cyclopropa[b][1]benzofuran-1-carboxamide]
24 | 630 | 500 to 5000 | CCOc1ccc([C@H](COC)NC(=O)C2C3Oc4cc(OC)ccc4C32)cc1 (stereo partly drawn) [Example B17, exo-N-[(1R)-1-(4-ethoxyphenyl)-2-methoxyethyl]-4-methoxy-1a,6b-dihydro-1H-cyclopropa[b][1]benzofuran-1-carboxamide]
25 | 1000 | 500 to 5000 | CCOc1ccc([C@H](COC)NC(=O)C2C3Oc4cccc(Br)c4C32)cc1 (stereo partly drawn) [Example B18, exo-6-bromo-N-[(1R)-1-(4-ethoxyphenyl)-2-methoxyethyl]-1a,6b-dihydro-1H-cyclopropa[b][1]benzofuran-1-carboxamide]
26 | 5600 | 5000 to 50000 | CCOc1ccc(C2(NC(=O)C3C4Oc5ccc(F)cc5C43)CCC2)cn1 (stereo not drawn) [Example C3, exo-N-[1-(6-ethoxypyridin-3-yl)cyclobutyl]-5-fluoro-1a,6b-dihydro-1H-cyclopropa[b][1]benzofuran-1-carboxamide]
27 |  | 5000 to 50000 | COc1cc2c(cc1OC)[C@@H](NC(=O)C1C3Oc4ccc(F)cc4C31)COC2 (stereo partly drawn) [Example C4, exo-N-[(4R)-6,7-dimethoxy-3,4-dihydro-1H-2-benzopyran-4-yl]-5-fluoro-1a,6b-dihydro-11H-cyclopropa[b][1]benzofuran-1-carboxamide]
28 | 1400 | 500 to 5000 | CCOc1ccc([C@@H](NC(=O)C2C3Oc4ccc(F)cc4C32)C(F)F)cn1 (stereo partly drawn) [Example C5, exo-N-[(1R)-1-(6-ethoxypyridin-3-yl)-2,2-difluoroethyl]-5-fluoro-1a,6b-dihydro-1H-cyclopropa[b][1]benzofuran-1-carboxamide]
29 | 810 | 500 to 5000 | COc1ccc2c(c1)OCC2NC(=O)C1C2Oc3ccc(F)cc3C21 (stereo not drawn) [Example C8, exo-5-fluoro-N-(6-methoxy-2,3-dihydro-1-benzofuran-3-yl)-1a,6b-dihydro-1H-cyclopropa[b][1]benzofuran-1-carboxamide]
30 | 1100 | 500 to 5000 | CCOc1ccc([C@@H](NC(=O)C2C3Oc4ccc(F)cc4C32)C(F)F)cn1 (stereo partly drawn) [Example C9, exo-N-[(1R)-1-(6-ethoxypyridin-3-yl)-2,2-difluoroethyl]-5-fluoro-1a,6b-dihydro-1H-cyclopropa[b][1]benzofuran-1-carboxamide]
31 | 1200 | 500 to 5000 | CC(NC(=O)C1C2Oc3ccc(F)cc3C21)c1cccs1 (stereo not drawn) [Example C12, exo-5-fluoro-N-[1-(thiophen-2-yl)ethyl]-1a,6b-dihydro-1H-cyclopropa[b][1]benzofuran-1-carboxamide]
32 | 2300 | 500 to 5000 | CC(NC(=O)C1C2Oc3ccc(F)cc3C21)c1cc2ccccc2o1 (stereo not drawn) [Example C20, exo-N-[1-(1-benzofuran-2-yl)ethyl]-5-fluoro-1a,6b-dihydro-1H-cyclopropa[b][1]benzofuran-1-carboxamide]
33 | 3400 | 500 to 5000 | O=C(NCc1cc(F)ccc1F)C1C2Oc3ccc(F)cc3C21 (stereo not drawn) [Example C22, exo-N-[(2,5-difluorophenyl)methyl]-5-fluoro-1a,6b-dihydro-1H-cyclopropa[b][1]benzofuran-1-carboxamide]
